Results: the CheMixHub viscosity set
“And” between values parts separate entries of the source, which are not always exact repeats. Identical values can stand only once.

How the values were obtained:
[1] = xn = mol fraction of the nth substance listed

CCCCCCC(C)O (centres undefined)
viscosity
Conditions	298.15 K	303.15 K	308.15 K
101 kPa	6.49 mPa·s	–	–
101.3 kPa	5.929 mPa·s and 5.956 mPa·s	4.794 mPa·s and 4.803 mPa·s	3.909 mPa·s and 3.907 mPa·s
101.33 kPa	–	4.804 mPa·s	–

CCOC(=O)C(Br)CC (centres undefined)
Conditions	viscosity [mPa·s]
303.15 K, 101 kPa	1.529

COS(=O)(=O)[O-].Cn1cc[n+](C)c1
viscosity [mPa·s]
Conditions	298.15 K	303.15 K	308.15 K	313.15 K
100 kPa	93.4	–	–	–
101 kPa	78	61.9	49.9	40.9

COCCn1cc[n+](C)c1.C[C@@H](O)[C@H](N)C(=O)[O-]
100 kPa
Conditions	viscosity [mPa·s]
298.15 K	900.5
303.15 K	625.4
308.15 K	362.1
313.15 K	260
318.15 K	184.4
323.15 K	136.8

CCn1cc[n+](CCOC)c1.O=S(=O)([O-])C(F)(F)F
101.33 kPa
Conditions	viscosity [mPa·s]
293.15 K	92.53
298.15 K	72.51
303.15 K	57.87
308.15 K	47.34
313.15 K	39.02
318.15 K	32.59

CCn1cc[n+](C)c1C.O=S(=O)([N-]S(=O)(=O)C(F)(F)F)C(F)(F)F
101.3 kPa
Conditions	viscosity [mPa·s]
293.15 K	88.09
298.15 K	69.84
303.15 K	56.37
308.15 K	46.1
313.15 K	38.26
318.15 K	32.15
323.15 K	27.31

NCCNCCNCCN
101 kPa
Conditions	viscosity [mPa·s]
303.15 K	25.41
313.15 K	15.31
323.15 K	9.867

c1ccncc1
viscosity
Conditions	293.15 K	298 K	298.15 K	298.25 K	303.15 K	308.15 K	313.15 K	318.15 K	323.15 K
100 kPa	0.9801 mPa·s	–	0.9155 mPa·s	–	0.8568 mPa·s	0.8032 mPa·s	0.7546 mPa·s	0.7103 mPa·s	0.6698 mPa·s
101 kPa	–	–	–	–	–	0.76 mPa·s and 0.7914 mPa·s	0.714 mPa·s (2×) and 0.724 mPa·s	0.6939 mPa·s	0.645 mPa·s and 0.6248 mPa·s
101.3 kPa	–	0.882 mPa·s	0.903 mPa·s	–	–	0.75 mPa·s	–	0.675 mPa·s	–
101.33 kPa	–	–	–	0.88 mPa·s	0.828 mPa·s	0.78 mPa·s	0.8 mPa·s	0.66 mPa·s	–

CC(O)CCO (centres undefined)
101 kPa
Conditions	viscosity
298.15 K	96.7 mPa·s and 96.8 mPa·s
303.15 K	69.7 mPa·s and 70.93 mPa·s
308.15 K	51.8 mPa·s and 53.72 mPa·s
313.15 K	40 mPa·s and 40.13 mPa·s
318.15 K	29.9 mPa·s and 31.22 mPa·s

CN(C)CCN(C)C
100 kPa
Conditions	viscosity [mPa·s]
293.15 K	0.615
303.15 K	0.557
313.15 K	0.493
323.15 K	0.439

O=C(Cl)c1ccccc1
Conditions	viscosity [mPa·s]
303.15 K, 101 kPa	1.244

CCCCCCn1cc[n+](C)c1.[Cl][Fe-]([Cl])([Cl])[Cl]
101 kPa
Conditions	viscosity [mPa·s]
293.15 K	73.92
298.15 K	58.96
303.15 K	47.89
308.15 K	39.56
313.15 K	33.07
318.15 K	28.06
323.15 K	24.02

[2H]OCCCCC
Conditions	viscosity [mPa·s]
306.3 K, 101.33 kPa	2.685

C[N+](C)(C)CCO.NCCS(=O)(=O)[O-] + O
viscosity [mPa·s], [1], 100 kPa
Conditions	x1 = 3.04e-05	x1 = 5.1e-05	x1 = 7.04e-05	x1 = 9.62e-05	x1 = 0.0001978	x1 = 0.0004282	x1 = 0.0006357	x1 = 0.0009005	x1 = 0.001375	x1 = 0.001632
293.15 K	1.014	1.017	1.019	1.022	1.028	1.036	1.041	1.046	1.052	1.054
298.15 K	0.904	0.907	0.91	0.913	0.922	0.932	0.939	0.946	0.954	0.958
303.15 K	0.811	0.814	0.817	0.82	0.828	0.839	0.846	0.853	0.861	0.863
308.15 K	0.737	0.742	0.745	0.749	0.76	0.771	0.776	0.781	0.786	0.789
313.15 K	0.675	0.68	0.684	0.688	0.699	0.709	0.715	0.72	0.723	0.724

CC(O)CCO (centres undefined) + O
viscosity [mPa·s], [1]
Conditions	298.15 K	303.15 K	308.15 K	313.15 K	318.15 K
101 kPa, x1 = 0.0996	3.694	3.073	2.633	2.297	2.019
101 kPa, x1 = 0.1982	8.539	6.787	5.587	4.737	4.034
101 kPa, x1 = 0.2991	15.27	11.94	9.627	8.017	6.671
101 kPa, x1 = 0.4036	23.16	18.3	14.52	11.63	9.592
101 kPa, x1 = 0.4489	28.48	23.28	17.57	13.92	11.4
101 kPa, x1 = 0.6118	47.9	35.02	27.68	21.38	17.22
101 kPa, x1 = 0.6989	56.8	42.27	33.27	25.42	20.24
101 kPa, x1 = 0.7986	67.85	51.92	38.78	29.8	23.4
101 kPa, x1 = 0.8971	82.56	62.2	46.95	35.92	27.87
101.3 kPa, x2 = 0.045	–	–	–	–	28.95
101.3 kPa, x2 = 0.2499	–	–	–	–	20.85

CCCCCCC(C)O (centres undefined) + Brc1ccccc1
viscosity [mPa·s], [1], 101 kPa
Conditions	298.15 K	303.15 K
x2 = 0.0495	5.76	4.559
x2 = 0.1184	4.748	3.795
x2 = 0.1814	4.027	3.25
x2 = 0.2506	3.367	2.769
x2 = 0.2943	3.034	2.532
x2 = 0.3711	2.576	2.178
x2 = 0.4297	2.285	1.961
x2 = 0.5077	1.983	1.738
x2 = 0.5834	1.766	1.554
x2 = 0.6524	1.587	1.418
x2 = 0.7315	1.41	1.275
x2 = 0.8025	1.3	1.174
x2 = 0.8722	1.192	1.093
x2 = 0.9483	1.107	1.03

CCCCCCCCCC(=O)O + CCCCCCCCCCCCCCCC
[1], 100 kPa, x2 = 0.6321
Conditions	viscosity [mPa·s]
298.2 K	4.1
308.2 K	3.09
318.2 K	2.41
